In patent publication US9422262B2, “Compounds and methods for treating diseases mediated by protease activated receptors” (The Broad Institute, Inc., priority 2010, dated 2016):

Experiments:
permeabilized platelets = assay: GTP-γ-S induced P-selectin surface expression in permeabilized platelets; format: cell-based, human; settings: FIG. 1C
Procedure: To confirm the specificity of compound 1 for PAR1, platelets were incubated with compound 1 and subsequently activated with a variety of platelet agonists. P-selectin surface expression was monitored to detect platelet activation. […] In contrast, an IC50 for inhibition of other agonists was not reached even at concentrations >30-fold its IC50 for PAR1-mediated secretion. To further evaluate whether PAR1 is the target of compound 1, we tested the ability of the compound to inhibit Ca^2+ flux in HEK293 cells overexpressing recombinant PAR1.

Gαq-mediated Ca2+ flux = assay: SFLLRN-induced Gαq-mediated Ca2+ flux in MDCK cells; format: cell-based; settings: FIG. 3C
Text: (§1) This pattern of inhibition is consistent with that of an allosteric inhibitor. […] This observation raised the possibility that compound 1 blocks PAR1 signaling through Gαq (which mediates platelet aggregation downstream of PAR1), but not Gα12/13 (which mediates shape change downstream of PAR1). A previously identified PAR1 inhibitor, 3,5-difluoro aminoisoxazole (3,5-DFAI), inhibited both shape change and aggregation. Shape change that occurred in the presence of compound 1 was blocked by the Rho kinase inhibitor Y27632, confirming participation of Rho kinase downstream of Gα12/13 in compound-1-resistance shape change (FIG. 3A). […] PAR1-mediated decrease in TER in these cells is dependent on Gα12. […] In contrast, 3,5-DFAI inhibited SFLLRN-mediated decrease in TER (FIG. 3B) and compound 1 inhibited Gαq-mediated Ca^2+ flux in these MDCK cells (FIG. 3C).

mouse PAR4 = target: T1, mouse PAR4 (Mus musculus, UniProt O88634); assay: PAR4-mediated aggregation of mouse platelets; format: cell-based; settings: FIG. 4A
T1 construct: Aggregation studies using mouse platelets; endogenous in cells; host or cells: mouse platelets
T1 sequence (O88634 17-396): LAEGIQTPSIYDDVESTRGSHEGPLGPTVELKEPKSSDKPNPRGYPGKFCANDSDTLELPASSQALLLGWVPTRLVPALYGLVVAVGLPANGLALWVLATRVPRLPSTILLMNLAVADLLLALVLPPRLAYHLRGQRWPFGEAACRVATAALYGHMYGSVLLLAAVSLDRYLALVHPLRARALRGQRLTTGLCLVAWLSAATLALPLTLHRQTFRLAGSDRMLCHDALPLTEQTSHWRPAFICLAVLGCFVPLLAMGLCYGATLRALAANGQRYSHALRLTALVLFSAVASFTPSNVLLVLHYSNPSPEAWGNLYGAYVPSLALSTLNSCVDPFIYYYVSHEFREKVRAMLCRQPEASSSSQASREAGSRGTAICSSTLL

thrombus formation = assay: Thrombus formation following laser-induced injury of the cremaster arteriole in mice; format: in vivo
Text: PAR1 is the thrombin receptor on human platelets and serves an important function in mediating thrombus formation. We tested compound 1 to determine whether it inhibited thrombus formation following laser-induced injury of the cremaster arteriole in mice. The dominant PAR receptor on mouse platelets is PAR4. However, since compound 1 acts at a non-orthosteric site and mouse PAR4 differs from human PAR4, we reasoned that compound 1 may be able to block mouse PAR4. […] When infused into mice at a concentration of 5 mg/kg, compound 1 inhibited platelet accumulation during thrombus formation by >90% (FIG. 4B). Infusion of 5 mg/kg also impaired fibrin generation during thrombus formation (FIG. 4C). Thus, compound 1 blocks both cellular- and coagulation protein-mediated arms of thrombus formation. […] The compound was therefore infused every 30 minutes during the course of these experiments. The short half-life of compound 1 in vivo may be useful in scenarios in which anticoagulation is only required for a short period of time or when anticoagulation needs to be reversed quickly, such as anticoagulation prior to invasive procedures or surgery.
(§2) Since there are also situations in which longer term anticoagulation is desired, we performed further studies in the thrombus formation model to assess analogs of compound 1 that may have a more long-lived effect. […] This instability in mouse plasma may have contributed to its short half-life of efficacy in vivo.

[1] = Stability in human plasma; format: in vitro ADME
Text: as §2

PAR1 [2] = target: T2, PAR1 (Homo sapiens, UniProt P25116); assay: Ca2+ flux in HEK293 cells overexpressing recombinant PAR1; format: cell-based; set-up: expressed in transfected cells; host or cells: HEK293; settings: concentrations similar to those for inhibition of P-selectin expression; FIG. 1B
T2 sequence (P25116 22-425): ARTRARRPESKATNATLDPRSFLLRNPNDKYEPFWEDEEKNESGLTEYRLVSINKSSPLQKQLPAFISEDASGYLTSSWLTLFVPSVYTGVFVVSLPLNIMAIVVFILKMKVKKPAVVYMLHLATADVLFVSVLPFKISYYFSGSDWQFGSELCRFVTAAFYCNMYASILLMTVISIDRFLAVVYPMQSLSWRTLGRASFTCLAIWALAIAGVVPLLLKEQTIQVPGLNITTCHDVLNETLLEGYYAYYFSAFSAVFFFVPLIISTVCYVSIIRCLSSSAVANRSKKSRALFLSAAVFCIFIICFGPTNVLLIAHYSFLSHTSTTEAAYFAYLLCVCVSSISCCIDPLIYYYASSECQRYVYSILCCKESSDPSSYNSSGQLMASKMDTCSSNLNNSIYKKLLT

PAR1 [3] = target: T2, PAR1; assay: P-selectin surface expression on washed platelets stimulated with SFLLRN (flow cytometry); format: cell-based; set-up: endogenous in cells; host or cells: platelets (platelet-rich plasma; washed platelets from individual donors)
Procedure: For this assay, the probe is incubated with washed platelets obtained from individual donors. Platelets are subsequently stimulated with 5 μM SFLLRN. After 15 minutes, phycoerythrin-labeled anti-P-selectin antibody (BD Biosciences) is added to the incubation mixture. Following a 20-minute incubation, a sample is analyzed by flow cytometry for staining of P-selectin.
P-selectin surface expression was monitored to detect platelet activation.

PAR1 [4] = target: T2, PAR1; assay: PAR1-mediated platelet aggregation and shape change; format: cell-based; set-up: endogenous in cells; host or cells: platelets (platelet-rich plasma; washed platelets from individual donors); settings: FIG. 3A
Text: as §1

PAR4-mediated aggregation of mouse platelets (mouse PAR4): inhibits
stability in human plasma [1]: good stability
changes in Ca2+ flux in HEK293 cells overexpressing recombinant PAR1 (PAR1 [2]): inhibits
inhibition of the expression of P-selectin (PAR1 [3]; 1 μM compound, washed platelets, activation with 5 μM SFLLRN): 90%
IC50 (PAR1 [3]; FIG. 1A, read-out: IC50, activation mediated through PAR1 (P-selectin surface expression)): ~300 nM
pattern of inhibition of PAR1-mediated platelet activation (PAR1 [3]; varying concentrations of compound and SFLLRN, FIG. 2): non-competitive inhibition
PAR1-mediated platelet aggregation (PAR1 [4]): inhibited
PAR1-mediated platelet shape change (PAR1 [4]): failed to inhibit
Structure (SMILES): CCCC(=O)Nc1cccc(NC(=O)c2ccccc2Br)c1 [Compound 1]
P-selectin surface expression induced by GTP-γ-S (permeabilized platelets): fails to inhibit
Gαq-mediated Ca2+ flux (Gαq-mediated Ca2+ flux): inhibited
inhibition of platelet accumulation during thrombus formation (thrombus formation; 5 mg/kg infused every 30 minutes, FIG. 4B): > 90%
fibrin generation during thrombus formation (thrombus formation; infusion of 5 mg/kg, FIG. 4C): impaired
